A short description of assay [1]: Tested in vitro for the antiviral assay in mitogen stimulated human peripheral blood mononuclear (PBM) cells infected with HIV-1 (strain LAV). Format: functional.
For assay [2], the system named is MT4. The assay can be described thus: Tested in vitro for the cytotoxic activity against uninfected MT-4 cells. Format: functional, cell-based. The following applies: Homo sapiens.
In the next assay the test system is Vero. Nature of the assay: Tested in vitro for the cytotoxic activity against uninfected Vero cells. It is filed as functional, cell-based. The following applies: Chlorocebus sabaeus.
Assay [3] in a line: Tested in vitro for the cytotoxic activity against uninfected human peripheral blood mononuclear (PBM) cells. Format: functional.
The test system of a further assay is CCRF-CEM. Nature of the assay: Tested in vitro for the cytotoxic activity against uninfected CEM cells. The following applies: Homo sapiens. It is filed as functional, cell-based.
The subject of assay [4] is MT4. The assay can be described thus: Tested in vitro for the cytotoxic activity against uninfected MT-4 cells at 200 uM. Format: functional. The following applies: Homo sapiens.

pEC50, pIC50: −log10 of the molar value. Bounds are passed on as bounds.

Turning to `O=c1ccn([C@H]2CO[C@@H](CO)O2)c(=O)[nH]1`, the pEC50 (usually −log10 of the EC50, conventionally taken in molar units) in assay [1] was 4.24. Moreover, the negative-log IC50 (pIC50) (commonly the negative decadic logarithm of the IC50, by convention in mol/L) is below 3.70 in the assay on MT4 [2], below 4.00 with Vero and below 4.00 in assay [3].

In the case of `Nc1ccn([C@H]2CO[C@@H](CO)O2)c(=O)n1`, the pIC50 in the assay on CCRF-CEM is 7.10; in the assay with Vero, 6.77; in assay [3], below 4.00. The pEC50 in assay [1] was 8.30. Besides, in the assay with MT4 [4], at 200 µM the inhibition was 66%.

Consider `CCc1cn(C2COC(CO)O2)c(=O)[nH]c1=O` (stereo not drawn), for which the pEC50 in assay [1] is below 4.00. Besides, the pIC50 (with Vero; in assay [3]) was below 4.00 each time. For the same molecule, in the assay with MT4 [4], the inhibition – broadly, the relative decrease from the control value, in per cent – at 200 µM turned out to be 30%.

The molecule `O=c1[nH]c(=O)n([C@H]2CO[C@@H](CO)O2)cc1Br` had a pEC50 in assay [1] of 5.55. Besides, the values for the pIC50 (in the assay with MT4 [2]; in the assay with Vero; in assay [3]) were below 3.70, below 4.00 and below 4.00, respectively.

Take `O=c1[nH]c(=O)n(C2COC(CO)O2)cc1Cl` (stereo not drawn): the negative logarithm of the EC50 (pEC50) in assay [1] is 5.77. Moreover, the pIC50 was below 3.70 in the assay with MT4 [2], below 4.00 with Vero and below 4.00 in assay [3].

The molecule `O=c1[nH]c(=O)n(C2COC(CO)O2)cc1I` (stereo not drawn) gave a pEC50 in assay [1] below 4.00. The results for the pIC50 (with MT4 [2]; in the assay with Vero; in assay [3]) were below 3.70, below 4.00 and below 4.00, respectively.

`O=c1[nH]c(=O)n(C2COC(CO)O2)cc1C(F)(F)F` (stereo not drawn): in assay [1], the pEC50 is 4.03. Further, the results for the pIC50 (with MT4 [2]; in the assay with Vero; in assay [3]) were below 3.70, below 4.00 and below 4.00, respectively.

Take `O=c1[nH]c(=O)n([C@H]2CO[C@@H](CO)O2)cc1F`: the negative logarithm of the IC50 (pIC50) (in the assay with CCRF-CEM; in the assay with Vero; in assay [3]) was below 4.00 in each case. Also, the pEC50 in assay [1] is 4.55.

These data come from ChEMBL document CHEMBL1149950, “The synthesis and anti-hiv activity of pyrimidine dioxolanyl nucleosides” (Bioorg Med Chem Lett, 1993).
